From patent US8815915B2, “Benzofuran-2-sulfonamides pyridine derivatives as chemokine receptor modulators” (Allergan, Inc., priority 2012, dated 2014)

Biological target: T1, CCR2 receptor (Homo sapiens, UniProt P41597)
T1 construct: expressed in transfected cells
Assay: compound-induced calcium activity on FLIPR Tetra in HEK-Gqi5 cells stably expressing CCR2
Assay type: cell-based
Details: CCR2 receptor, HEK-Gqi5 cells stably expressing CCR2, calcium FLIPR Tetra; for IC50: read-out: IC50
Description: HEK-Gqi5 cells stably expressing CCR2 were cultured in (DMEM high glucose, 10% FBS, 1% PSA, 400 μg/ml geneticin and 50 μg/ml hygromycin. Appropriate positive control chemokines (MCP-1, MIP1A or RANTES) was used as the positive control agonist for screening compound-induced calcium activity assayed on the FLIPR^Tetra. The drug plates were prepared in 384-well microplates using the EP3 and the MultiPROBE robotic liquid handling systems. Compounds were synthesized and tested for CCR2 activity.

T1 sequence (P41597 whole entry): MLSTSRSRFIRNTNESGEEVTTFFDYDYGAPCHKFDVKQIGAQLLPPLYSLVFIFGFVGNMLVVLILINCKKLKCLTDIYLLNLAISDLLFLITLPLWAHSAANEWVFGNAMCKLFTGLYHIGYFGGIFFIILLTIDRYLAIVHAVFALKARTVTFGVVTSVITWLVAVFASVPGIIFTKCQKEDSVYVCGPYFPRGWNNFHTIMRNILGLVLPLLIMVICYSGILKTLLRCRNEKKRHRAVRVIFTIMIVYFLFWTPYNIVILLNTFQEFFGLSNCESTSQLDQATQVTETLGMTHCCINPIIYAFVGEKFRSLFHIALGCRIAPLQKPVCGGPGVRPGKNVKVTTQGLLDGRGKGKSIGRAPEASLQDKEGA

% ANTAGONISM [%]	IC50 [nM]	Compound
100	36	O=C(c1ccccc1)c1ncc(Cl)cc1NS(=O)(=O)c1cc2ccccc2o1 [Compound 29, N-[5-chloro-2-(phenylcarbonyl)pyridin-3-yl]-1-benzofuran-2-sulfonamide]
105	17	O=S(=O)(Nc1cc(Cl)cnc1S(=O)(=O)c1ccccc1)c1cc2ccccc2o1 [Compound 31, N-[5-chloro-2-(phenylsulfonyl)pyridin-3-yl]-1-benzofuran-2-sulfonamide]
99	7	O=S(=O)(Nc1cc(Cl)cnc1[S+]([O-])c1ccccc1)c1cc2ccccc2o1 (stereo not shown) [Compound 32, N-[5-chloro-2-(phenylsulfinyl)pyridin-3-yl]-1-benzofuran-2-sulfonamide]
102	251	Cc1ncccc1COc1ncc(Cl)cc1NS(=O)(=O)c1cc2ccccc2o1 [Compound 33, N-{5-chloro-2-[(2-methylpyridin-3-yl)methoxy]pyridin-3-yl}-1-benzofuran-2-sulfonamide]
91	4250	COC(=O)c1ccccc1CSc1ncc(Cl)cc1NS(=O)(=O)c1cc2ccccc2o1 [Compound 35, methyl 2-[({3-[(1-benzofuran-2-ylsulfonyl)amino]-5-chloropyridin-2-yl}sulfanyl)methyl]benzoate]
97	340	O=C(O)c1ccccc1CSc1ncc(Cl)cc1NS(=O)(=O)c1cc2ccccc2o1 [Compound 36, 2-[({3-[(1-benzofuran-2-ylsulfonyl)amino]-5-chloropyridin-2-yl}sulfanyl)methyl]benzoic acid]
95	191	COC(=O)c1ccccc1C[S+]([O-])c1ncc(Cl)cc1NS(=O)(=O)c1cc2ccccc2o1 (stereo not shown) [Compound 37, methyl 2-[({3-[(1-benzofuran-2-ylsulfonyl)amino]-5-chloropyridin-2-yl}sulfinyl)methyl]benzoate]
97	180	COC(=O)c1ccccc1CS(=O)(=O)c1ncc(Cl)cc1NS(=O)(=O)c1cc2ccccc2o1 [Compound 38, methyl 2-[({3-[(1-benzofuran-2-ylsulfonyl)amino]-5-chloropyridin-2-yl}sulfonyl)methyl]benzoate]
32	2690	O=C(O)c1ccccc1CS(=O)(=O)c1ncc(Cl)cc1NS(=O)(=O)c1cc2ccccc2o1 [Compound 39, 2-[({3-[(1-benzofuran-2-ylsulfonyl)amino]-5-chloropyridin-2-yl}sulfonyl)methyl]benzoic acid]
65	469	O=S(=O)(Nc1cc(F)cnc1Sc1ccccc1)c1cc2ccccc2o1 [Compound 40, N-[5-fluoro-2-(phenylsulfanyl)pyridin-3-yl]-1-benzofuran-2-sulfonamide]
97	68	O=S(=O)(Nc1cc(F)cnc1[S+]([O-])c1ccccc1)c1cc2ccccc2o1 (stereo not shown) [Compound 41, N-[5-fluoro-2-(phenylsulfinyl)pyridin-3-yl]-1-benzofuran-2-sulfonamide]
90	–	O=C(O)c1ccccc1C[S+]([O-])c1ncc(Cl)cc1NS(=O)(=O)c1cc2ccccc2o1 (stereo not shown) [Compound 43, 2-[({3-[(1-benzofuran-2-ylsulfonyl)amino]-5-chloropyridin-2-yl}sulfinyl)methyl]benzoic acid]
105	455	Cc1cnc([S+]([O-])c2ccccc2)c(NS(=O)(=O)c2cc3ccccc3o2)c1 (stereo not shown) [Compound 45, N-[5-methyl-2-(phenylsulfinyl)pyridin-3-yl]-1-benzofuran-2-sulfonamide]
57	1440	Cc1cnc(S(=O)(=O)c2ccccc2)c(NS(=O)(=O)c2cc3ccccc3o2)c1 [Compound 46, N-[5-methyl-2-(phenylsulfonyl)pyridin-3-yl]-1-benzofuran-2-sulfonamide]
102	1230	O=C(O)c1ccccc1Sc1ncc(Cl)cc1NS(=O)(=O)c1cc2ccccc2o1 [Compound 47, 2-({3-[(1-benzofuran-2-ylsulfonyl)amino]-5-chloropyridin-2-yl}sulfanyl)benzoic acid]
96	786	O=C(O)c1cccc(Sc2ncc(Cl)cc2NS(=O)(=O)c2cc3ccccc3o2)c1 [Compound 48, 3-({3-[(1-benzofuran-2-ylsulfonyl)amino]-5-chloropyridin-2-yl}sulfanyl)benzoic acid]
5	1950	O=C(O)c1ccccc1[S+]([O-])c1ncc(Cl)cc1NS(=O)(=O)c1cc2ccccc2o1 (stereo not shown) [Compound 50, 2-({3-[(1-benzofuran-2-ylsulfonyl)amino]-5-chloropyridin-2-yl}sulfinyl)benzoic acid]
92	1750	COC(=O)c1ccccc1CSc1ncccc1NS(=O)(=O)c1cc2ccccc2o1 [Compound 56, methyl 2-[({3-[(1-benzofuran-2-ylsulfonyl)amino]pyridin-2-yl}sulfanyl)methyl]benzoate]
98	493	O=C(O)c1ccccc1CSc1ncccc1NS(=O)(=O)c1cc2ccccc2o1 [Compound 57, 2-[({3-[(1-benzofuran-2-ylsulfonyl)amino]pyridin-2-yl}sulfanyl)methyl]benzoic acid]
102	198	COC(=O)c1ccccc1C[S+]([O-])c1ncccc1NS(=O)(=O)c1cc2ccccc2o1 (stereo not shown) [Compound 58, methyl 2-[({3-[(1-benzofuran-2-ylsulfonyl)amino]pyridin-2-yl}sulfinyl)methyl]benzoate]
58	–	O=C(O)c1ccccc1C[S+]([O-])c1ncccc1NS(=O)(=O)c1cc2ccccc2o1 (stereo not shown) [Compound 59, 2-[({3-[(1-benzofuran-2-ylsulfonyl)amino]pyridin-2-yl}sulfinyl)methyl]benzoic acid]
101	86	COC(=O)c1ccccc1CS(=O)(=O)c1ncccc1NS(=O)(=O)c1cc2ccccc2o1 [Compound 60, methyl 2-[({3-[(1-benzofuran-2-ylsulfonyl)amino]pyridin-2-yl}sulfonyl)methyl]benzoate]
57	–	O=C(O)c1ccccc1CS(=O)(=O)c1ncccc1NS(=O)(=O)c1cc2ccccc2o1 [Compound 61, 2-[({3-[(1-benzofuran-2-ylsulfonyl)amino]pyridin-2-yl}sulfonyl)methyl]benzoic acid]
